One block for each compound: values may come before it.
Key:
[1] = Fluidity related test (densities, Carr index, Hausner ratio, angle of repose); type: physicochemical
Procedure: (Two) A fluidity related test was carried out on the crystal form A product of ertapenem sodium, the crystal form B product, the crystal form C product, the crystal form D product, the crystal form E product and the amorphous product of ertapenem sodium. [formula] [formula] [table]

[2] = Stability of the product at −18° C. (purity and content over 12 months); type: physicochemical
Procedure: Data of the stability of the product at −18° C. are shown in Table 2 below: […]

Angle of repose [1]: 47°
Bulk density [1]: 0.63 g/mL
Carr index [1]: 20%
Hausner ratio [1]: 1.25
Tap density [1]: 0.79 g/mL
Structure (SMILES): C[C@@H](O)[C@H]1C(=O)N2C(C(=O)[O-])=C(S[C@@H]3CN[C@H](C(=O)Nc4cccc(C(=O)O)c4)C3)[C@H](C)[C@H]12.[Na+] [Amorphous, ertapenem sodium]

Angle of repose [1]: 43°
Bulk density [1]: 0.64 g/mL
Carr index [1]: 22%
Hausner ratio [1]: 1.28
Tap density [1]: 0.82 g/mL
Structure (SMILES): C[C@@H](O)[C@H]1C(=O)N2C(C(=O)[O-])=C(S[C@@H]3CN[C@H](C(=O)Nc4cccc(C(=O)O)c4)C3)[C@H](C)[C@H]12.[Na+] [Crystal form A, ertapenem sodium]

Angle of repose [1]: 41°
Bulk density [1]: 0.63 g/mL
Carr index [1]: 20%
Hausner ratio [1]: 1.25
Tap density [1]: 0.79 g/mL
Structure (SMILES): C[C@@H](O)[C@H]1C(=O)N2C(C(=O)[O-])=C(S[C@@H]3CN[C@H](C(=O)Nc4cccc(C(=O)O)c4)C3)[C@H](C)[C@H]12.[Na+] [Crystal form B, ertapenem sodium]

Angle of repose [1]: 43°
Bulk density [1]: 0.63 g/mL
Carr index [1]: 19%
Hausner ratio [1]: 1.24
Tap density [1]: 0.78 g/mL
Structure (SMILES): C[C@@H](O)[C@H]1C(=O)N2C(C(=O)[O-])=C(S[C@@H]3CN[C@H](C(=O)Nc4cccc(C(=O)O)c4)C3)[C@H](C)[C@H]12.[Na+] [Crystal form C, ertapenem sodium]

Angle of repose [1]: 47°
Bulk density [1]: 0.64 g/mL
Carr index [1]: 21%
Hausner ratio [1]: 1.27
Tap density [1]: 0.81 g/mL
Structure (SMILES): C[C@@H](O)[C@H]1C(=O)N2C(C(=O)[O-])=C(S[C@@H]3CN[C@H](C(=O)Nc4cccc(C(=O)O)c4)C3)[C@H](C)[C@H]12.[Na+] [Crystal form D, ertapenem sodium]

Angle of repose [1]: 46°
Bulk density [1]: 0.66 g/mL
Carr index [1]: 20%
Hausner ratio [1]: 1.26
Tap density [1]: 0.83 g/mL
Structure (SMILES): C[C@@H](O)[C@H]1C(=O)N2C(C(=O)[O-])=C(S[C@@H]3CN[C@H](C(=O)Nc4cccc(C(=O)O)c4)C3)[C@H](C)[C@H]12.[Na+] [Crystal form E, ertapenem sodium]

Angle of repose [1]: 23°
Bulk density [1]: 0.64 g/mL
Carr index [1]: 10%
Hausner ratio [1]: 1.11
Tap density [1]: 0.71 g/mL
Fluidity (in words) ([1]; compared with crystal forms A-E and the amorphous product): better fluidity
Structure (SMILES): C[C@@H](O)[C@H]1C(=O)N2C(C(=O)[O-])=C(S[C@@H]3CN[C@H](C(=O)Nc4cccc(C(=O)O)c4)C3)[C@H](C)[C@H]12.[Na+] [Crystal form F, ertapenem sodium]

Content ([2]; 0 month): 99.2%
Purity ([2]; 0 month): 99.4%
Content ([2]; 1 month): 99.2%
Purity ([2]; 1 month): 99.4%
Content ([2]; 2 months): 99.2%
Purity ([2]; 2 months): 99.4%
Content ([2]; 3 months): 99.2%
Purity ([2]; 3 months): 99.4%
Content ([2]; 4 months): 99.2%
Purity ([2]; 4 months): 99.3%
Content ([2]; 5 months): 99.1%
Purity ([2]; 5 months): 99.3%
Content ([2]; 6 months): 99.1%
Purity ([2]; 6 months): 99.3%
Content ([2]; 7 months): 99.1%
Purity ([2]; 7 months): 99.3%
Content ([2]; 8 months): 99.1%
Purity ([2]; 8 months): 99.3%
Content ([2]; 9 months): 99.1%
Purity ([2]; 9 months): 99.3%
Content ([2]; 10 months): 99.1%
Purity ([2]; 10 months): 99.3%
Content ([2]; 11 months): 99.0%
Purity ([2]; 11 months): 99.2%
Content ([2]; 12 months): 99.0%
Purity ([2]; 12 months): 99.2%
Stability of the crystal form product (in words) ([2]; 12 months): very stable
Structure (SMILES): C[C@@H](O)[C@H]1C(=O)N2C(C(=O)[O-])=C(S[C@@H]3CN[C@H](C(=O)Nc4cccc(C(=O)O)c4)C3)[C@H](C)[C@H]12.[Na+] [Example 1, ertapenem sodium]

Content ([2]; 0 month): 99.1%
Purity ([2]; 0 month): 99.2%
Content ([2]; 1 month): 99.1%
Purity ([2]; 1 month): 99.2%
Content ([2]; 2 months): 99.1%
Purity ([2]; 2 months): 99.2%
Content ([2]; 3 months): 99.1%
Purity ([2]; 3 months): 99.2%
Content ([2]; 4 months): 99.1%
Purity ([2]; 4 months): 99.2%
Content ([2]; 5 months): 99.0%
Purity ([2]; 5 months): 99.1%
Content ([2]; 6 months): 99.0%
Purity ([2]; 6 months): 99.1%
Content ([2]; 7 months): 99.0%
Purity ([2]; 7 months): 99.1%
Content ([2]; 8 months): 99.0%
Purity ([2]; 8 months): 99.1%
Content ([2]; 9 months): 99.0%
Purity ([2]; 9 months): 99.1%
Content ([2]; 10 months): 99.0%
Purity ([2]; 10 months): 99.0%
Content ([2]; 11 months): 99.0%
Purity ([2]; 11 months): 99.0%
Content ([2]; 12 months): 99.0%
Purity ([2]; 12 months): 99.0%
Stability of the crystal form product (in words) ([2]; 12 months): very stable
Structure (SMILES): C[C@@H](O)[C@H]1C(=O)N2C(C(=O)[O-])=C(S[C@@H]3CN[C@H](C(=O)Nc4cccc(C(=O)O)c4)C3)[C@H](C)[C@H]12.[Na+] [Example 2, ertapenem sodium]
